The source of these data is patent publication US9789096B2, “Methods and compositions for selective and targeted cancer therapy” (Board of Regents of the University of Texas System, priority 2013, dated 2017).

The structures appear in SMILES notation.

The target of experiment [1] is T1, SCD1 (Mus musculus, UniProt P13516).
T1 construct: tissue derived from mouse liver and preputial gland was independently exposed; from tissue; host or cells: mouse liver
In words: Tritium release assay of SCD1 activity, mouse preputial gland. Type of experiment: biochemical. To be noted: preputial gland lacks CYP4F11. An excerpt:
(§1) FIGS. 10A-10F. Sensitive cells express high levels of CYP4 family members. FIG. 10A. relative expression levels of mRNA for a panel of cytochrome P450 enzymes from the cancer cell line encyclopedia (CCLE, http://www.broadinstitute.org/ccle) showing CYP4F11 in particular is highly expressed in 4 NSCLC lines that are sensitive to SCD1 inhibition. FIG. 10B. Western blot showing that CYP4F11 protein is expressed in all sensitive cell lines but not in the majority of insensitive cell lines. FIG. 10C. […] FIG. 10D. Cells were incubated with either a methoxy-containing oxalamide, which represents the pro-drug form, or the hydroxy containing oxalamide, which represents the active form of the drug. […] FIG. 10E. 293t cells were transfected with mammalian expression plasmids containing SCD1 or CYP4F11 as indicated. Cells were treated with either SW208108 or its demethylated congener, SW211666, and conjugated with a fluorescent dye as described in FIG. 7. Cells containing CYP4F11 form covalent adducts with both the pro-drug (methoxy) and drug form (demethylated, i.e. OH). […] FIG. 10F. Shown are the results of a tritium release assay in which tritiated water is produced from tritiated stearoyl CoA by the action of SCD1. […] By contrast, SW211666 but not SW208108 inhibits SCD1 in mouse preputial gland, which lacks CYP4F11 (bottom). […]

In experiment [2] the target is T2, SCD1 (Homo sapiens, UniProt O00767).
T2 sequence (O00767 1-359): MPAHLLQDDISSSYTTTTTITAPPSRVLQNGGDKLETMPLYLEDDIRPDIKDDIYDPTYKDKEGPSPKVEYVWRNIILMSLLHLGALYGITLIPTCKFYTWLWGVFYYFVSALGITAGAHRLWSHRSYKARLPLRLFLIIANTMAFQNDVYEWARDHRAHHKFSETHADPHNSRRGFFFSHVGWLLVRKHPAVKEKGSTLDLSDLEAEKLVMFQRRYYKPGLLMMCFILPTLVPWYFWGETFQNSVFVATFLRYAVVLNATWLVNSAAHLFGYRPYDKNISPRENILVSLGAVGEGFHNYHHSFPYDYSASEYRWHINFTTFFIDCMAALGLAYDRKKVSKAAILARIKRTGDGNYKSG
Briefly: Covalent adduct formation in 293t cells transfected with SCD1 or CYP4F11. The format is cell-based. Also noted: expressed in transfected cells; host or cells: 293t cells.
Excerpt: as §1

T1 sequence (P13516 whole entry): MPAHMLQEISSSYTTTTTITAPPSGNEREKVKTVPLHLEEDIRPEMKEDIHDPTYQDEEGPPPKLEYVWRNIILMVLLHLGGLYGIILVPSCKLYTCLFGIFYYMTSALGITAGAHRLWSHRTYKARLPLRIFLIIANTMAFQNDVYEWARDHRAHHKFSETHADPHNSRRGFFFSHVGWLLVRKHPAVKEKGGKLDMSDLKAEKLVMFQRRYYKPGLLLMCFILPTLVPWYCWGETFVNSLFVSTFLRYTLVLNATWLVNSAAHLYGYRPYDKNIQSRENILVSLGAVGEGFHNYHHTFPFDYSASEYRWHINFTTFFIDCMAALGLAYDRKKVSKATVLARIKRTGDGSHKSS

Turning to `C#CCOc1ccc(C(=O)c2ccc(NC(=O)C(=O)NCCc3ccc(OC)cc3)cc2)cc1` [SW208108], the “inhibition of SCD1 activity in mouse preputial gland tissue” value against SCD1 [1] is “not in the preputial gland”. Also, the “covalent modification of SCD1 in 293t cells in the absence of CYP4F11” value at SCD1 [2] (SCD1 expressed alone) is on record as “unable to covalently modify SCD1”. For the same compound, the “covalent modification of SCD1 in 293t cells expressing SCD1 and CYP4F11” value at SCD1 [2] (with or without HET0016) was “covalently modify SCD1”.
